# Assay results from PMC12155096 (International Journal of Molecular Sciences, 2025).
# Read-outs that look alike come from different tables or passages of the source.
# Key:
# human CYP2C19 [1] = target: T1, human CYP2C19 (Homo sapiens, UniProt P33261); details: for CYP2C19 Efficacy (in parenthesis): human
# human CYP1A2 [2] = target: T2, human CYP1A2 (Homo sapiens, UniProt P05177); test: biochemical
# T2 sequence (P05177 1-516): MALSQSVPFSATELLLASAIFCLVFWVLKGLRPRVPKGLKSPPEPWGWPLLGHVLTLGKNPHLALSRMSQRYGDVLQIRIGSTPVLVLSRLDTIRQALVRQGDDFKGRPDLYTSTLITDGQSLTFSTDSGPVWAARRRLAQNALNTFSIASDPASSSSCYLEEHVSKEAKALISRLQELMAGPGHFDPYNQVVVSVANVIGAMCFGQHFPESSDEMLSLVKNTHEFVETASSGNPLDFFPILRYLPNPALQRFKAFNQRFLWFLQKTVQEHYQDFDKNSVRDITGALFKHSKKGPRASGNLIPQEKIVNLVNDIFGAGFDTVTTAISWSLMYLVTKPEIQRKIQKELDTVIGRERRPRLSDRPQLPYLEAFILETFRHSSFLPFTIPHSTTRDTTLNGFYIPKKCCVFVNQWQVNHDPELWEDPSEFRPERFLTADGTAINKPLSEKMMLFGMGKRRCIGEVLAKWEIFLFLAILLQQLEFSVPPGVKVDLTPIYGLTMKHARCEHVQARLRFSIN
# CYP3A4 [3] = target: T3, CYP3A4 (Homo sapiens, UniProt P08684); test: biochemical; details: for IC50: CYP3A4 IC50 (half-maximal inhibitory concentration)
# T3 sequence (P08684 whole entry): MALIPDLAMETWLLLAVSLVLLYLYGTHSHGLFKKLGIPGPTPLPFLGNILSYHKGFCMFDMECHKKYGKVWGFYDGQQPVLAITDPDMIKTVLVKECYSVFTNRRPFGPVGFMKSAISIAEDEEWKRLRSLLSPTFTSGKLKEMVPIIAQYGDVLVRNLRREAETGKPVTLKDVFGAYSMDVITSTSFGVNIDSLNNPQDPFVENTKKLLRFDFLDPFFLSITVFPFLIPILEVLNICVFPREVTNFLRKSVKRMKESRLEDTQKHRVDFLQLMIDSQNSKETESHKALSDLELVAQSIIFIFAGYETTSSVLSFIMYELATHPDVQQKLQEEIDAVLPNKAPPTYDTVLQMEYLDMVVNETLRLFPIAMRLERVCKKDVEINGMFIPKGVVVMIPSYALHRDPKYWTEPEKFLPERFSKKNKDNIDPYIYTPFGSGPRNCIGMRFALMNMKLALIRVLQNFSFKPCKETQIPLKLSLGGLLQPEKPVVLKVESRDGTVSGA
# human CYP2C9 [4] = target: T4, human CYP2C9 (Homo sapiens, UniProt P11712); test: P450-Glo CYP2C9 inhibition qHTS
# T4 sequence (P11712 whole entry): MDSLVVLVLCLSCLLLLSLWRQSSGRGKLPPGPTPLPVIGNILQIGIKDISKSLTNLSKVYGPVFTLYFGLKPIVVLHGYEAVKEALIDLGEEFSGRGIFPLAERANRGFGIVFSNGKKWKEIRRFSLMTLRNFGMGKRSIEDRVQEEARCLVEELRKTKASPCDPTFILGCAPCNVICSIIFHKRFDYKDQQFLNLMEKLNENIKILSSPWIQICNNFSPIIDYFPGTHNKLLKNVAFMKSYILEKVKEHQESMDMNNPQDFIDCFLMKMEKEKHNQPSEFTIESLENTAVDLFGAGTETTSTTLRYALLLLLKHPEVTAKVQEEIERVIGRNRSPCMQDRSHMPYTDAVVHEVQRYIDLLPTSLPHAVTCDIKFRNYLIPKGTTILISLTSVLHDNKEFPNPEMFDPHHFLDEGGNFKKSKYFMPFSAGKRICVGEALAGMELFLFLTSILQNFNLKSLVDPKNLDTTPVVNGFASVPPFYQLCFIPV
# human CYP2D6 [5] = target: T5, human CYP2D6 (Homo sapiens, UniProt P10635); test: P450-Glo CYP2D6 inhibition qHTS
# T5 sequence (P10635 whole entry): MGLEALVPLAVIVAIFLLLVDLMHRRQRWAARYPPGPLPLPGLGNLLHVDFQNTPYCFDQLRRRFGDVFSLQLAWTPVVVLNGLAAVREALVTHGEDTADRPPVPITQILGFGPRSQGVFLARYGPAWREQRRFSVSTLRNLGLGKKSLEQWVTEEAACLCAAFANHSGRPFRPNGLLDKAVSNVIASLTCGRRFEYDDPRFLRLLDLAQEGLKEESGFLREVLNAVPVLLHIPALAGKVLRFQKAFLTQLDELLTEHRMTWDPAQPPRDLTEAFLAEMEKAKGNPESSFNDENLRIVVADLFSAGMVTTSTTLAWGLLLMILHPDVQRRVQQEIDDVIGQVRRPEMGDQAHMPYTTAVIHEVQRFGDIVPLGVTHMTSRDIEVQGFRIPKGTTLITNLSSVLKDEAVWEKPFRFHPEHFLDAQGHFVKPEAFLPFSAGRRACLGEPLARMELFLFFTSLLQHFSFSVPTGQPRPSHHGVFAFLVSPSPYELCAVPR
# [6] = target: Photinus pyralis (firefly) luciferase (Photinus pyralis, UniProt P08659); test: biochemical; format: biochemical
# Chain of Photinus pyralis (firefly) luciferase (P08659 whole entry): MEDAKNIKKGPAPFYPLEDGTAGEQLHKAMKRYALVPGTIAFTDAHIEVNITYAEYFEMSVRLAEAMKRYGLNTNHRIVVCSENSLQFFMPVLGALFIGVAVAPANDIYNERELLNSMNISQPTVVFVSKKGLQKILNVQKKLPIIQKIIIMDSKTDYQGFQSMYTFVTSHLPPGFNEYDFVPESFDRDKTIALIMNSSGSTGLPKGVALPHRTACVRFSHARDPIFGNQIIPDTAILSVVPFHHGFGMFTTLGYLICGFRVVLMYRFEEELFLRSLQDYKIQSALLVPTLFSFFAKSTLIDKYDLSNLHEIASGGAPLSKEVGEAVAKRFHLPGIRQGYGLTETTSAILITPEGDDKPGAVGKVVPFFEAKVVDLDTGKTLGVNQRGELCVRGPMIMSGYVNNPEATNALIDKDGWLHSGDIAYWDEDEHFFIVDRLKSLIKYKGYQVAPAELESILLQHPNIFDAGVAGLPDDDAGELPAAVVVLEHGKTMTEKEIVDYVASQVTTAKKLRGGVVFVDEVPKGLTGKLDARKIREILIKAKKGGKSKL
# human CYP1A2 [7] = target: T2, human CYP1A2
# CYP3A4 [8] = target: T3, CYP3A4
# human CYP2C9 [9] = target: T4, human CYP2C9; test: biochemical
# human CYP2C19 [10] = target: T1, human CYP2C19; test: biochemical
# human CYP2D6 [11] = target: T5, human CYP2D6; test: biochemical
# human CYP2C19 [12] = target: T1, human CYP2C19; test: P450-Glo CYP2C19 inhibition qHTS
# human CYP2D6 [13] = target: T5, human CYP2D6; details: for CYP2D6 Efficacy (in parenthesis): human
# human CYP2C9 [14] = target: T4, human CYP2C9; details: human
# [15] = in vivo; cited from earlier work
# [16] = CYP1A2 IC50 (half-maximal inhibitory concentration)
# [17] = CYP2C9 IC50 (half-maximal inhibitory concentration)
# [18] = CYP2C19 IC50 (half-maximal inhibitory concentration)
# [19] = CYP2D6 IC50 (half-maximal inhibitory concentration)
# T1 sequence (P33261 whole entry): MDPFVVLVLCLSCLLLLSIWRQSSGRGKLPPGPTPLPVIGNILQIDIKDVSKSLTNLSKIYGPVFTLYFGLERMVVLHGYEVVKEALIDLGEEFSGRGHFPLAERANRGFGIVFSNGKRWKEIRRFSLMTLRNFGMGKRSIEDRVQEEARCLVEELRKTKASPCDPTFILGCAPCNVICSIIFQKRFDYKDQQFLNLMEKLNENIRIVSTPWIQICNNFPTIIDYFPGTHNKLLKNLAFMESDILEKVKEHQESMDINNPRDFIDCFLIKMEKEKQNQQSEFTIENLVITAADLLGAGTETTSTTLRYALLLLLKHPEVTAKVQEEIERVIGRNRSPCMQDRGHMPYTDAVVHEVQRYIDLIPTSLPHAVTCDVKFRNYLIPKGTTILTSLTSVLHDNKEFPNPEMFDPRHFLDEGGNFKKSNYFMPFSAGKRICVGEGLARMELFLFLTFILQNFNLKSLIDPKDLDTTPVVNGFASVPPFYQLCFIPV
SMILES,Luciferase IC50 (half-maximal inhibitory concentration) [6],CYP1A2 Efficacy (in parenthesis) (human CYP1A2 [7]; human),CYP2C9 Efficacy (in parenthesis) (human CYP2C9 [14]),CYP2C19 Efficacy (in parenthesis) (human CYP2C19 [1]),CYP2D6 Efficacy (in parenthesis) (human CYP2D6 [13]),CYP3A4 Efficacy (in parenthesis) (CYP3A4 [8]),IC50 (human CYP1A2 [2]; [16]),IC50 (human CYP2C9 [9]; [17]),IC50 (human CYP2C19 [10]; [18]),IC50 (human CYP2D6 [11]; [19]),IC50 (CYP3A4 [3]),further results
"CC(C)(c1ccccc1)c1ccccc1 [2,2-Diphenylpropane]",–,–,–,–,–,–,–,–,–,–,–,CYP2C19 AC50 (half-maximal activity concentration) (human CYP2C19 [1]): Inactive; AC50 (human CYP1A2 [2]): 58.8 µM; AC50 (CYP3A4 [3]): 34.4 ± 11.7 µM; CYP2C9 AC50 (half-maximal activity concentration) (human CYP2C9 [4]): Inconclusive inhibitor; CYP2D6 AC50 (half-maximal activity concentration) (human CYP2D6 [5]): Inconclusive inhibitor
CSC(=O)c1cccc2nnsc12 [Acibenzolar-S-methyl],Inactive,–,–,–,–,–,–,–,–,–,–,"CYP1A2 Efficacy (in parenthesis) (human CYP1A2 [7]; mean ± standard deviation from three experiments, negative = inhibition): 0.77 ± 0.11 (-94 ± 7) %; CYP3A4 IC50 (half-maximal inhibitory concentration) (CYP3A4 [8]): Inactive; IC50 (human CYP1A2 [2]): 0.77 µM; IC50 (human CYP2C9 [9]): 8.65 µM; IC50 (human CYP2C19 [10]): 13.2 µM; IC50 (human CYP2D6 [11]): 34.3 µM; CYP2C9 Efficacy (in parenthesis) (human CYP2C9 [4]; human): 8.65 ± 1.19 (-93 ± 9) %; CYP2D6 Efficacy (in parenthesis) (human CYP2D6 [5]; human): 34.28 ± 2.23 (-79 ± 6) %; CYP2C19 Efficacy (in parenthesis) (human CYP2C19 [12]; human): 13.25 ± 2.38 (-133 ± 9) %"
CN(CC1(C)CCCO1)S(=O)(=O)c1ccc(Cl)c(S(N)(=O)=O)c1 (stereo not drawn) [Mefruside],–,–,–,–,–,–,–,–,–,–,–,CYP1A2 AC50 (half-maximal activity concentration) (human CYP1A2 [7]): Inactive; CYP2D6 AC50 (half-maximal activity concentration) (human CYP2D6 [13]): Inactive; AC50 (human CYP2C9 [9]): 13.3 ± 8.76 µM; AC50 (CYP3A4 [3]): 15.8 ± 3.61 µM; CYP2C19 AC50 (half-maximal activity concentration) (human CYP2C19 [12]): Inconclusive inhibitor
OC(c1ccc(F)cc1)(c1cncnc1)c1ccccc1Cl (stereo not drawn) [Nuarimol],Inactive,49.42 ± 19.58 (-46 ± 6) %,23.57 ± 4.24 (-118 ± 8) %,2.7 ± 1.21 (-141 ± 5) %,35.73 ± 4.11 (-53 ± 5) %,0.31 ± 0.08 (-68 ± 6) %,49.4 µM,23.6 µM,2.7 µM,35.7 µM,0.31 µM,–
CCOP(=S)(OCC)Oc1ccc([N+](=O)[O-])cc1 [Parathion],Inactive,0.99 ± 0.17 (-96 ± 2) %,1.62 ± 0.19 (-99 ± 2) %,0.17 ± 0.04 (-144 ± 4) %,32.26 ± 3.71 (-69 ± 3) %,3.18 ± 0.89 (-79 ± 1) %,0.99 µM,–,0.17 µM,–,3.18 µM,IC50 (human CYP2C9 [9]): 1.62 µM; IC50 (human CYP2D6 [11]): 32.3 µM
C=CC(=O)OCC(CO)(COC(=O)C=C)COC(=O)C=C [Pentaerythritol triacrylate],Inactive,71.58 ± 8.23 (-54 ± 11) %,13.25 ± 1.87 (-108 ± 2) %,22.64 ± 2.6 (-137 ± 14) %,63.77 ± 20.97 (-79 ± 21) %,0.93 ± 0.39 (-89 ± 6) %,71.6 µM,13.2 µM,22.6 µM,63.8 µM,0.93 µM,–
CCOP(=S)(OCC)SCn1c(=O)oc2cc(Cl)ccc21 [Phosalone],–,2.98 ± 0.74 (-99 ± 6) %,1.21 ± 0.14 (-101 ± 6) %,0.13 ± 0.05 (-148 ± 13) %,15.88 ± 2.02 (-103 ± 4) %,0.3 ± 0.07 (-85 ± 5) %,2.98 µM,–,0.13 µM,–,0.3 µM,IC50 [6]: 49.6 µM; IC50 (human CYP2C9 [9]): 1.21 µM; IC50 (human CYP2D6 [11]): 15.9 µM
Clc1ccccc1-c1nc(-c2ccncc2)no1 [Pifexole],–,0.39 ± 0.12 (-91 ± 4) %,6.98 ± 3.95 (-79 ± 12) %,0.74 ± 0.41 (-105 ± 12) %,20.06 ± 9.42 (-76 ± 17) %,33.57 ± 4.62 (-77 ± 10) %,0.39 µM,6.98 µM,0.74 µM,20.1 µM,33.6 µM,IC50 [6]: 3.23 µM
CCNP(=S)(OC)O/C(C)=C/C(=O)OC(C)C (stereo not drawn) [Propetamphos],Inactive,2.25 ± 0.26 (-99 ± 4) %,0.57 ± 0.11 (-102 ± 4) %,0.08 ± 0.01 (-138 ± 6) %,28.38 ± 3.26 (-120 ± 4) %,1.05 ± 0.36 (-88 ± 2) %,2.25 µM,–,0.08 µM,–,1.05 µM,IC50 (human CYP2C9 [9]): 0.57 µM; IC50 (human CYP2D6 [11]): 28.4 µM
CCCC1COC(Cn2cncn2)(c2ccc(Cl)cc2Cl)O1 (stereo not drawn) [Propiconazole],Inactive,24.72 ± 6.17 (-104 ± 9) %,2.18 ± 0.37 (-104 ± 6) %,0.52 ± 0.14 (-134 ± 10) %,37.02 ± 2.51 (-73 ± 5) %,0.06 ± 0.02 (-71 ± 3) %,24.7 µM,2.18 µM,0.52 µM,37 µM,0.06 µM,–
COC(=O)N(OC)c1ccccc1COc1ccn(-c2ccc(Cl)cc2)n1 [Pyraclostrobin],–,0.99 ± 0.24 (-102 ± 3) %,5.35 ± 1.51 (-104 ± 6) %,0.57 ± 0.25 (-152 ± 29) %,32.63 ± 15.32 (-79 ± 28) %,1.31 ± 0.09 (52 ± 7) %,0.99 µM,5.35 µM,0.57 µM,32.6 µM,–,IC50 [6]: 56.4 µM; CYP3A4 IC50 (half-maximal inhibitory concentration) (CYP3A4 [8]): 1.31 ± 0.09 (52 ± 7) µM; AC50 (human CYP1A2 [2]; CYP1A2 AC50 (half-maximal activity concentration)): 0.99 µM; AC50 (human CYP2C9 [9]; CYP2C9 AC50 (half-maximal activity concentration)): 5.35 µM; AC50 (human CYP2C19 [10]; CYP2C19 AC50 (half-maximal activity concentration)): 0.57 µM; AC50 (human CYP2D6 [11]; CYP2D6 AC50 (half-maximal activity concentration)): 32.6 µM; AC50 (CYP3A4 [3]; CYP3A4 AC50 (half-maximal activity concentration)): 1.31 µM
CCc1c(C(=O)NN2CCCCC2)nn(-c2ccc(Cl)cc2Cl)c1-c1ccc(Br)cc1 [Surinabant],–,–,–,–,–,–,–,–,–,–,–,CYP1A2 AC50 (half-maximal activity concentration) (human CYP1A2 [7]): Inactive; CYP2D6 AC50 (half-maximal activity concentration) (human CYP2D6 [13]): Inactive; AC50 (human CYP2C9 [9]): 8.32 ± 1.06 µM; AC50 (CYP3A4 [3]): 4.12 ± 1.72 µM; CYP2C19 AC50 (half-maximal activity concentration) (human CYP2C19 [12]): Inconclusive inhibitor
CC(C)(C)C(O)(CCc1ccc(Cl)cc1)Cn1cncn1 (stereo not drawn) [Tebuconazole],Inactive,31.85 ± 3.66 (-77 ± 8) %,3.3 ± 0.22 (-104 ± 4) %,0.45 ± 0.0 (-115 ± 9) %,34.28 ± 2.23 (-82 ± 7) %,0.21 ± 0.04 (-90 ± 1) %,31.9 µM,3.3 µM,0.45 µM,34.3 µM,0.21 µM,–
FC(F)C(F)(F)OCC(Cn1cncn1)c1ccc(Cl)cc1Cl (stereo not drawn) [Tetraconazole],Inactive,6.09 ± 0.84 (-101 ± 7) %,1.84 ± 0.12 (-114 ± 7) %,0.02 ± 0.0 (-134 ± 5) %,12.32 ± 3.08 (-113 ± 2) %,0.25 ± 0.06 (-66 ± 2) %,6.09 µM,1.84 µM,0.02 µM,12.3 µM,0.25 µM,–
CCCOC/C(=N\c1ccc(Cl)cc1C(F)(F)F)n1ccnc1 [Triflumizole],Inactive,9.3 ± 0.63 (-102 ± 6) %,3.92 ± 0.98 (-103 ± 3) %,0.36 ± 0.3 (-125 ± 6) %,34.28 ± 2.23 (-99 ± 9) %,0.21 ± 0.07 (-78 ± 2) %,9.3 µM,3.92 µM,0.36 µM,34.3 µM,0.21 µM,–
"COC(=O)[C@@H]1[C@H]2C[C@H]3c4[nH]c5ccccc5c4CCN3C[C@@H]2CC[C@@H]1O [Yohimbine, reference compound]",Inactive,–,–,–,–,–,–,–,–,–,–,Cmax (maximum plasma concentration) [15]: 75 ng/mL
